Measurements reported in the NIST ThermoML archive (doi:10.1021/acs.jced.8b00153).
Several values for one entry are separate records, joined by “and”; a condition that tells them apart may be missing. Identical values can stand only once. Numbers after ± are expanded uncertainties.

Conditions: for mass density / vapor or sublimation pressure / viscosity / speed of sound: Liquid; for mass density: Vibrating tube method; for vapor or sublimation pressure: Ebulliometric method (Recirculating still); for surface tension liquid-gas: Drop volume; for viscosity: Capillary tube (Ostwald / Ubbelohde) method; for speed of sound: Frequency=3 MHz, Single path-length method

CCc1ccco1 [2-ethylfuran]
Conditions | mass density | speed of sound [m/s] | viscosity [mPa·s]
328.15 K, 10000 kPa | 876.84 ± 0.25 kg/m3 | – | –
328.15 K, 15000 kPa | 882.03 ± 0.26 kg/m3 | – | –
328.15 K, 20000 kPa | 886.97 ± 0.27 kg/m3 | – | –
328.15 K, 25000 kPa | 891.57 ± 0.28 kg/m3 | – | –
328.15 K, 30000 kPa | 895.96 ± 0.29 kg/m3 | – | –
328.15 K, 35000 kPa | 900.23 ± 0.3 kg/m3 | – | –
328.15 K, 40000 kPa | 904.35 ± 0.31 kg/m3 | – | –
328.15 K, 45000 kPa | 908.24 ± 0.32 kg/m3 | – | –
328.15 K, 50000 kPa | 912.04 ± 0.32 kg/m3 | – | –
328.15 K, 55000 kPa | 915.63 ± 0.33 kg/m3 | – | –
328.15 K, 60000 kPa | 919.32 ± 0.33 kg/m3 | – | –
328.15 K, 65000 kPa | 922.64 ± 0.34 kg/m3 | – | –
330.65 K, 100 kPa | 862.76 ± 0.51 kg/m3 | 1053.7 ± 0.71 | 0.3536 ± 0.0056
333.15 K, 100 kPa | 859.9 ± 0.51 kg/m3 and 859.9 ± 0.23 kg/m3 | 1042.2 ± 0.71 | 0.3455 ± 0.0056
333.15 K, 2000 kPa | 862.3 ± 0.23 kg/m3 | – | –
333.15 K, 5000 kPa | 865.81 ± 0.24 kg/m3 | – | –
333.15 K, 7000 kPa | 868.2 ± 0.25 kg/m3 | – | –
333.15 K, 10000 kPa | 871.58 ± 0.25 kg/m3 | – | –
333.15 K, 15000 kPa | 876.87 ± 0.26 kg/m3 | – | –
333.15 K, 20000 kPa | 881.93 ± 0.28 kg/m3 | – | –
333.15 K, 25000 kPa | 886.74 ± 0.29 kg/m3 | – | –
333.15 K, 30000 kPa | 891.26 ± 0.3 kg/m3 | – | –
333.15 K, 35000 kPa | 895.59 ± 0.31 kg/m3 | – | –
333.15 K, 40000 kPa | 899.79 ± 0.31 kg/m3 | – | –
333.15 K, 45000 kPa | 903.78 ± 0.32 kg/m3 | – | –
333.15 K, 50000 kPa | 907.66 ± 0.33 kg/m3 | – | –
333.15 K, 55000 kPa | 911.34 ± 0.34 kg/m3 | – | –
333.15 K, 60000 kPa | 915.07 ± 0.34 kg/m3 | – | –
333.15 K, 65000 kPa | 918.6 ± 0.35 kg/m3 | – | –
335.65 K, 100 kPa | 857.02 ± 0.51 kg/m3 | 1032.1 ± 0.71 | 0.3372 ± 0.0056
338.15 K, 100 kPa | 854.13 ± 0.51 kg/m3 and 854.07 ± 0.23 kg/m3 | 1020.5 ± 0.71 | 0.33 ± 0.0056
338.15 K, 2000 kPa | 856.63 ± 0.24 kg/m3 | – | –
338.15 K, 5000 kPa | 860.21 ± 0.24 kg/m3 | – | –
338.15 K, 7000 kPa | 862.69 ± 0.25 kg/m3 | – | –
338.15 K, 10000 kPa | 866.19 ± 0.26 kg/m3 | – | –
338.15 K, 15000 kPa | 871.73 ± 0.27 kg/m3 | – | –
338.15 K, 20000 kPa | 876.98 ± 0.28 kg/m3 | – | –
338.15 K, 25000 kPa | 881.86 ± 0.29 kg/m3 | – | –
338.15 K, 30000 kPa | 886.43 ± 0.3 kg/m3 | – | –
338.15 K, 35000 kPa | 890.92 ± 0.31 kg/m3 | – | –
338.15 K, 40000 kPa | 895.2 ± 0.32 kg/m3 | – | –
338.15 K, 45000 kPa | 899.36 ± 0.33 kg/m3 | – | –
338.15 K, 50000 kPa | 903.34 ± 0.34 kg/m3 | – | –
338.15 K, 55000 kPa | 907.07 ± 0.34 kg/m3 | – | –
338.15 K, 60000 kPa | 910.92 ± 0.35 kg/m3 | – | –
338.15 K, 65000 kPa | 914.41 ± 0.35 kg/m3 | – | –

Conditions | surface tension liquid-gas [mN/m] | vapor or sublimation pressure [kPa]
329.8 K | – | 30.6 ± 0.1
330.65 K | 20.87 ± 0.24 | –
331.39 K | – | 32.49 ± 0.1
333.15 K | 20.5 ± 0.24 | –
333.19 K | – | 34.85 ± 0.1
334.73 K | – | 36.94 ± 0.11
335.65 K | 20.28 ± 0.24 | –
336.84 K | – | 39.92 ± 0.11
338.15 K | 19.95 ± 0.24 | –
338.83 K | – | 42.91 ± 0.11
340.3 K | – | 45.25 ± 0.11
342.6 K | – | 49.13 ± 0.11
344.85 K | – | 53.18 ± 0.11
347.05 K | – | 57.4 ± 0.11
348.94 K | – | 61.22 ± 0.11
350.71 K | – | 64.98 ± 0.12
352.9 K | – | 69.89 ± 0.12
354.83 K | – | 74.51 ± 0.12
356.8 K | – | 79.34 ± 0.12
358.65 K | – | 84.17 ± 0.12
360.61 K | – | 89.59 ± 0.12
361.79 K | – | 92.94 ± 0.12
362.46 K | – | 94.88 ± 0.13
363.67 K | – | 98.45 ± 0.13
364.18 K | – | 100.08 ± 0.13
364.61 K | – | 101.33 ± 0.13
